Assay [1] has as its target HPK1 (Homo sapiens, UniProt Q92918). Put plainly: HPK1 biochemical assay (ADP-GLO Kinase Assay). The source says:
IC50 values of any compounds can be determined accordingly over a range of inhibitor concentrations. In addition, the inhibitory effect of the compounds can also be assess using a biological assay, to determine the effect of the compounds on cytokine secretion by T cells following TCR and CD28 stimulation.
Biology Example 1 HPK1 Biochemical Assay
This example used the ADP-GLO™ Kinase Assay to measure the effect of potential HPK1 inhibitor compounds on HPK1 kinase activity.
The ADP-GLO™ Kinase Assay (Promega Corp., Madison, WI) measures ADP formed from a kinase reaction. According to the manufacture, the ADP formed in a kinase assay is first converted into ATP, which is then used to generate light in a luciferase reaction. The luminescence generated correlates with kinase activity. An exemplary experimental setting is described below, though minor adjustments can be made in individual assays.
Serial 3-fold dilution of compounds from 10 μM (top concentration) to 0.508 nM (lowest concentration). Positive control is 10 μM Reference+enzyme+substrate. Negative control is 1% DMSO+enzyme+substrate.
• 1. Buffer Preparation • 40 mM Tris pH7.5; 20 mM MgCl2, 0.1 mg/ml BSA, 50 μM DTT Buffer Stock
Add 20 mL 1M Tris and 10 mL 1M MgCl2 to 470 mL ddH2O to get buffer stock, and stock at RT. • 2. Preparing Fresh 1* Assay Buffer
• 3. Compounds Preparation • 1) The compounds were diluted to 1 mM, by mixing 10 μL of 10 mM respective compound stocks with 90 μL of DMSO. • 2) The compounds were then diluted 3-fold for 10 doses (5 μL to 10 μL dilution) by BRAVO. The top compound conc. was 1 mM (100×), DMSO Conc. was 100%. • 3) Transfer 100 nL of each diluted compound sample to 384-well plate (Corning-4512) by ECHO. • 4) Centrifuge the plate at 1,500 rpm for 1 minute. • 4. Preparation of 2×ATP-MBP Mixture: • 20 μM ATP, 0.2 μg/μL MBP in Kinase Buffer (final concentration: 10 μM ATP, 0.1 MBP)
• 5. Preparation of 2×HPK1 working solution with assay buffer. • HPK1 final concentration was 0.6 ng/μL. […] Incubate at 25° C. for 40 min. • 11. Record luminescence signal on an Envision plate reader (384-CTG). 5. Data Analysis
The percent (%) inhibition at each concentration of compound is calculated based on and relative to the signal in the High and Low control wells contained within each assay plate. […] The concentrations and % inhibition values for tested compounds were plotted and the concentration of compound required for 50% inhibition (IC50) was determined with a Three-parameter logistic dose response equation. The endpoint value (IC50) for the reference peptide/compound was evaluated in each experiment as a quality control measure. If the endpoint value was within 3-fold of the expected value, then the experiment was deemed acceptable.
(ADP-Glo turns the ADP formed in a reaction into a luminescent signal.)

In assay [2] the target is T1, JAK3 (Homo sapiens, UniProt P52333).
T1 construct: purchased Thermo fisher PV3855
Kind of assay: JAK3 biochemical assay (ADP-GLO Kinase Assay). As to conditions: for JAKs/HPK1 IC50 Ratio, B* / JAKs/HPK1 IC50 Ratio, N*: ratio of JAK3 IC50 to HPK1 IC50; for JAKs/HPK1 IC50 Ratio, B*: first testing facility; for JAKs/HPK1 IC50 Ratio, N*: second testing facility. How it is done: Biology Example 4 JAK3 Biochemical Assay
This example used the ADP-GLO™ Kinase Assay to measure the effect of potential HPK1 inhibitor compounds on JAK3 kinase activity. An exemplary experimental setting is described below, though minor adjustments can be made in individual assays.
3. Procedures • 1. Prepare JAK3 kinase buffer • Freshly adding DTT and BSA into Buffer (Final Conc.: 40 mM Tris pH7.5; 20 mM MgCl2, 0.1 mg/ml BSA, 50 μM DTT).
• 2. Compounds Preparation • For tested compounds: compounds were diluted to 1 mM, by mixing 5 μL of 10 mM compound stocks to 45 μL DMSO. The compounds solutions were then serially diluted 3-fold for 10 doses. The top compound concentration was 1 mM (100×), DMSO concentration was 100%. • 50 nL of each of 10 doses of diluted compound were added to 384-well assay plate (Corning #4512) by ECHO. • For positive control, 50 nL of 1 mM reference compound were added to 384-well assay plate (Corning #4512) by ECHO. • For negative control: 50 nL of DMSO was transferred into 384-well assay plate as a negative control. • The assay plate was centrifuged at 1,500 rpm for 1 minute. • 3. Compounds were Transferred by ECHO Following the Layout Below: • Reference and test compounds 1-15: serial 3-fold dilution from 10 μM to 0.508 nM (10 doses); negative control is 0.78 ng JAK3, 4 μM ATP & 0.2 μg/μL poly, 1% DMSO; positive control is the top dose of the reference compound, 0.78 ng JAK3, 0.2 μg/μL Poly(E4Y1), 4 μMATP, 1% DMSO. • 4. Add 2.5 μL/well of 2×JAK3 working solution using pipette (Thermo, 30 μL multi-channel), Centrifuge at 1,500 rpm for 1 minute. • 5. Add 2.5 μL/well of 2×ATP-Poly(E4Y1) working mixture using pipette (Thermo, 30 μL multi-channel), Centrifuge at 1,500 rpm for 1 minute. • 6. Incubate the assay plate at 25° C. for 60 min. • 7. Add 5 μL/well ADP-GLO™ Reagent by BRAVO to stop the kinase reaction and deplete the unconsumed ATP after 1 hour. Centrifuge at 1,500 rpm for 1 minute. Incubate at 25° C. for 40 min. • 8. Add 10 uL of Kinase Detection Reagent by BRAVO to convert ADP to ATP. Centrifuge at 1,500 rpm for 1 minute. Incubate at 25° C. for 40 min. • 9. Record luminescence signal on an Envision plate reader (384-USL). • 10. Process data using XL-fit. Inhibition %=[1-(test well−Negative control)/(positive control−Negative control)]*100%. 5. Data Analysis
The percent (%) inhibition at each concentration of compound is calculated based on and relative to the signal in the Negative and Positive control wells contained within each assay plate. The Negative control wells served as 0% inhibition, and the Positive control wells served as 100% inhibition. The concentrations and % inhibition values for tested compounds are plotted and the concentration of compound required for 50% inhibition (IC50) is determined with a Three-parameter logistic dose response equation. The endpoint value (IC50) for the reference peptide/compound is evaluated in each experiment as a quality control measure. If the endpoint value was within 3-fold of the expected value then the experiment was deemed acceptable.

Setting [3] is: B*: testing performed in a first testing facility, read-out: HPK1 IC50 (nM) Relative, B*.
Setting [4] is: B*: testing performed in a first testing facility, read-out: JAK3 IC50 (nM) Relative, B*.
Setting [5] is: N*: testing performed in a second testing facility, read-out: HPK1 IC50 (nM) Relative, N*.
Where [6] appears, read: N*: testing performed in a second testing facility, read-out: JAK3 IC50 (nM) Relative, N*.

SMILES strings stand for the structures. Read-outs that look alike come from different tables or passages of the source.

HPK1, sequence (Q92918 whole entry): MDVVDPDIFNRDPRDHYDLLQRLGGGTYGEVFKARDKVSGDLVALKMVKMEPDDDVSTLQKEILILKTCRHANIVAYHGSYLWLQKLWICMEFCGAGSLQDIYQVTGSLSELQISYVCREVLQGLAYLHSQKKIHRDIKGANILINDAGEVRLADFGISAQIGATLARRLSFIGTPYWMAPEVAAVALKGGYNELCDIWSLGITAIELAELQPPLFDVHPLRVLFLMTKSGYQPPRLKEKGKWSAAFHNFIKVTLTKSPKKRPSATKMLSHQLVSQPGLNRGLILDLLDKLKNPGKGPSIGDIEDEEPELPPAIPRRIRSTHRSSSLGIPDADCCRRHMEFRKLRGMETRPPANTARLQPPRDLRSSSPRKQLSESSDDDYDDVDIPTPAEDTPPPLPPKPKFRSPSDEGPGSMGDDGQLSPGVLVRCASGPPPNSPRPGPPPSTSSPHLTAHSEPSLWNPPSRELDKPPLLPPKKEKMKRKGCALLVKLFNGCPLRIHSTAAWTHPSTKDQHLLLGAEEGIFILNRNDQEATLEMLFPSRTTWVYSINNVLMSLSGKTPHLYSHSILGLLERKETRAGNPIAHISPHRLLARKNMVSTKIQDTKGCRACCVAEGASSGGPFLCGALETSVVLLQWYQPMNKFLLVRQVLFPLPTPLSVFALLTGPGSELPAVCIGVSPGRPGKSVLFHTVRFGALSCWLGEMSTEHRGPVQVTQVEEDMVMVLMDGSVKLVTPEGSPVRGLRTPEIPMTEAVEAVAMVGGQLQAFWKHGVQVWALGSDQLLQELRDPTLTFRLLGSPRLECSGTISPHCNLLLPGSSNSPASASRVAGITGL
T1 sequence (P52333 781-1124 limits assumed): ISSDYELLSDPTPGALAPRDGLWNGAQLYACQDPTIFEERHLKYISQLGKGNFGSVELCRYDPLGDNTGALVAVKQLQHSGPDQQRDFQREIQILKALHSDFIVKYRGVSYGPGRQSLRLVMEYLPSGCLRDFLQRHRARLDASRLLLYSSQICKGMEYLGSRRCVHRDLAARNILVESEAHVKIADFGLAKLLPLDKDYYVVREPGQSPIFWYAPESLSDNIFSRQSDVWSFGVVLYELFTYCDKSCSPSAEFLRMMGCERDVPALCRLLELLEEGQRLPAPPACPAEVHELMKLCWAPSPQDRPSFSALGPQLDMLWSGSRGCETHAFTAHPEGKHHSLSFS

Take `CCc1c[nH]c2ncc(-c3ccc(-c4ncco4)c(P(C)(C)=O)c3)cc12` [Example 63, (5-(3-Ethyl-1H-pyrrolo[2,3-b]pyridin-5-yl)-2-(oxazol-2-yl)phenyl)dimethylphosphine oxide]: the IC50 was 100 to 500 nM in assay [1] (setting [3]) and greater than 1000 nM in assay [2] (setting [4]). Besides, the “JAKs/HPK1 IC50 Ratio, B*” value in assay [2] amounted to 19.

For the molecule `CCc1c[nH]c2ncc(-c3ccc(C)c(P(C)(C)=O)n3)cc12` [Example 64, (6-(3-Ethyl-1H-pyrrolo[2,3-b]pyridin-5-yl)-3-methylpyridin-2-yl)dimethylphosphine oxide], the IC50 in assay [1] (setting [3]) was no more than 100 nM; in assay [2] (setting [4]) it was greater than 1000 nM. Further, the “JAKs/HPK1 IC50 Ratio, B*” value in assay [2] was found to be 44.

Take `CCc1c[nH]c2ncc(-c3ccc(CN(C)C)c(P(C)(C)=O)c3)cc12` [Example 65, (2-((Dimethylamino)methyl)-5-(3-ethyl-1H-pyrrolo[2,3-b]pyridin-5-yl)phenyl)dimethylphosphine oxide]: the IC50 was 500 to 1000 nM in assay [1] (setting [3]) and greater than 1000 nM in assay [2] (setting [4]). Besides, in assay [2], the “JAKs/HPK1 IC50 Ratio, B*” value is greater than 10.

Take `CCc1c[nH]c2ncc(-c3ccc(N4CCCC4=O)c(P(C)(C)=O)c3)cc12` [Example 66, 1-(2-(Dimethylphosphoryl)-4-(3-ethyl-1H-pyrrolo[2,3-b]pyridin-5-yl)phenyl)pyrrolidin-2-one]: the IC50 is 100 to 500 nM in assay [1] (setting [3]) and greater than 1000 nM in assay [2] (setting [4]). Also, the “JAKs/HPK1 IC50 Ratio, B*” value in assay [2] is reported as 3.

Take `CCc1c[nH]c2ncc(-c3ccc(C(N)=O)c(P(C)(C)=O)c3)cc12` [Example 67, 2-(Dimethylphosphoryl)-4-(3-ethyl-1H-pyrrolo[2,3-b]pyridin-5-yl)benzamide]: the IC50 in assay [1] (setting [3]) was 100 to 500 nM; in assay [2] (setting [4]), greater than 1000 nM. Moreover, the “JAKs/HPK1 IC50 Ratio, B*” value in assay [2] amounted to 10.

As to `CCc1c[nH]c2ncc(-c3cc(NC(C)=O)cc(P(C)(C)=O)c3)cc12` [Example 68, N-(3-(dimethylphosphoryl)-5-(3-ethyl-1H-pyrrolo[2,3-b]pyridin-5-yl)phenyl)acetamide], the IC50 in assay [1] (setting [3]) was 500 to 1000 nM; in assay [2] (setting [4]), greater than 1000 nM. In assay [2], the “JAKs/HPK1 IC50 Ratio, B*” value was determined as 2.

In the case of `CCc1c(Cl)[nH]c2ncc(-c3ccc(N)c(P(C)(C)=O)c3)cc12` [Example 69, (2-Amino-5-(2-chloro-3-ethyl-1H-pyrrolo[2,3-b]pyridin-5-yl)phenyl)dimethylphosphine oxide], the IC50 was no more than 100 nM in assay [1] (setting [3]), no more than 100 nM in assay [1] (setting [5]) and 500 to 1000 nM in assay [2] (setting [6]). Also, in assay [2], the “JAKs/HPK1 IC50 Ratio, N*” value stood at 52.

Take `CCc1c[nH]c2ncc(-c3ccc(N)c(P(C)(C)=O)c3)cc12` [Example 70, (2-Amino-5-(3-ethyl-1H-pyrrolo[2,3-b]pyridin-5-yl)phenyl)dimethylphosphine oxide]: the IC50 was no more than 100 nM in assay [1] (setting [3]), no more than 100 nM in assay [1] (setting [5]), 500 to 1000 nM in assay [2] (setting [4]) and 500 to 1000 nM in assay [2] (setting [6]). Further, the “JAKs/HPK1 IC50 Ratio, B*” value in assay [2] is 70. For the same molecule, the “JAKs/HPK1 IC50 Ratio, N*” value in assay [2] was found to be 50.

Consider `CCc1c[nH]c2ncc(-c3ccc(C(=O)OC)c(P(C)(C)=O)c3)cc12` [Example 72, Methyl 2-(dimethylphosphoryl)-4-(3-ethyl-1H-pyrrolo[2,3-b]pyridin-5-yl)benzoate], for which the IC50 in assay [1] (setting [3]) was 100 to 500 nM; in assay [2] (setting [4]), greater than 1000 nM. In addition, the “JAKs/HPK1 IC50 Ratio, B*” value in assay [2] is on record as 11.

Regarding `CCc1c[nH]c2ncc(-c3ccc(CO)c(P(C)(C)=O)c3)cc12` [Example 73, (5-(3-Ethyl-1H-pyrrolo[2,3-b]pyridin-5-yl)-2-(hydroxymethyl)phenyl)dimethylphosphine oxide], the IC50 lay in the range of 100 to 500 nM in assay [1] (setting [3]) and 500 to 1000 nM in assay [2] (setting [4]). Moreover, in assay [2], the “JAKs/HPK1 IC50 Ratio, B*” value worked out at 5.

`CCc1c[nH]c2ncc(-c3ccc(CF)c(P(C)(C)=O)c3)cc12` [Example 74, (5-(3-Ethyl-1H-pyrrolo[2,3-b]pyridin-5-yl)-2-(fluoromethyl)phenyl)dimethylphosphine oxide]: the IC50 was 100 to 500 nM in assay [1] (setting [3]) and greater than 1000 nM in assay [2] (setting [4]). Besides, the “JAKs/HPK1 IC50 Ratio, B*” value in assay [2] is 19.

A word on the IC50: it is the concentration at which inhibition is half-maximal.

The values above are taken from US12612424B2, “HPK1 inhibitors and uses thereof” (Regor Pharmaceuticals, Inc., priority 2019, dated 2026).
